Reference: PMC10303363, “Synthesis and Preclinical Evaluation of Novel ^68Ga-Labeled (R)-Pyrrolidin-2-yl-boronic Acid-Based PET Tracers for Fibroblast Activation Protein-Targeted Cancer Imaging” (Pharmaceuticals, 2023)
Several values for one entry are separate records, joined by “and”; a condition that tells them apart may be missing. Equal values may be shown once. One block for each compound: values may come before it.

Legend:
[1] = test system: FAP-positive SK-Mel-187 melanoma xenograft; set-up: method as in PMID 25633335; conditions: in vitro; cited from earlier work
DPPs = conditions: cited from earlier work
PREP = conditions: cited from earlier work
FAP [2] = conditions: cited from earlier work
FAP [3] = assay: FAP inhibition reported by Jansen et al. (literature); format: biochemical; conditions: from literature IC50 values
bone and muscle = test system: bone and muscle; set-up: method as in PMID 30850501, PMID 32332144, PMID 33721173, PMID 23712432, PMID 34620730; conditions: mice; cited from earlier work
[4] = test system: HEK-mFAP murine tumor model; set-up: method as in doi:10.1158/1538-7445.AM2022-3303; conditions: single dose; cited from earlier work
[5] = set-up: method as in PMID 35631416; conditions: patients, after administrating 740 MBq; cited from earlier work
[6] = test system: HEK293T:hFAP tumor-bearing mice; assay: Ex vivo biodistribution study; format: in vivo; conditions: 1 h pi; for Adrenal Glands uptake / Blood uptake / Bone uptake / Brain uptake / Fat uptake / Heart uptake / Kidneys uptake / Large Intestines uptake / Liver uptake / Lungs uptake / Muscle uptake / Pancreas uptake / Small Intestine uptake / Spleen uptake / Stomach uptake / Testes uptake / Thyroid uptake / Tumor uptake / Tumor/Blood uptake ratio / Tumor/Bone uptake ratio / Tumor/Kidney uptake ratio / Tumor/Muscle uptake ratio: n = 4
Experimental: (§1) Imaging and biodistribution studies were performed using immunodeficient male NRG (NOD.Cg-Rag1tm1Mom Il2rgtm1Wjl/SzJ) mice following previously reported procedures. All experiments were conducted according to the guidelines established by the Canadian Council on Animal Care and approved by Animal Ethics Committee of the University of British Columbia. The mice were subcutaneously inoculated with 7.5 × 10^6 HEK293T:hFAP cells in the left dorsal flank. When the tumors grew to 6–8 mm in diameter, the mice were used for PET/CT imaging and biodistribution studies.
For the biodistribution studies, the mice were injected with ~1–2 MBq of the ^68Ga-labeled tracer, using the exact procedures as described above. At 1 h pi, the mice were euthanized by CO2 inhalation. Blood was withdrawn by a cardiac puncture, and the organs/tissues of interest were collected, weighed and counted using a Perkin Elmer (Waltham, MA, USA) Wizard2 2480 automatic gamma counter. The uptake values in percent of injected dose per gram of tissues (%ID/g) for the different tracers were calculated.
(§2) For blocking studies, HEK293T:hFAP tumor-bearing mice were co-injected [^68Ga]Ga-SB04028 with an excess of FAPI-04 (0.5 mg/mouse) as a competitor. Imaging and biodistribution studies were performed at 1 h pi similar to the unblocked mice.

[7] = test system: HEK293T:hFAP tumor xenograft; assay: PET/CT imaging; format: in vivo, mice; conditions: 1 h pi; for tumor on PET/CT image: HEK293T:hFAP tumor xenograft, unblocked
Experimental: as §1
The PET/CT imaging experiments were carried out using a Siemens Inveon micro PET/CT scanner (Knoxville, TN, USA). Tumor-bearing mice were injected with ~4 to 6 MBq of ^68Ga-labeled tracer through a lateral caudal tail vein under 2.5% isoflurane in oxygen anesthesia, followed by recovery and free roaming in their cage during the uptake period. A 10 min localization CT scan was acquired using 3 overlapping positions to cover the entire mouse. The CT scan was used for the attenuation and scatter correction, and anatomical localization. A list mode acquisition was then performed for 15 min at 1 h pi with the mouse under isoflurane sedation. The images were reconstructed using 3D OSEM/MAP iterative methods.
as §2

[8] = In vivo stability study (radio-HPLC of plasma and urine); set-up: species or system mice; conditions: 15 min pi; for fraction of tracer remaining intact in plasma / fraction of tracer remaining intact in urine: male NRG mice, n = 3
Experimental: In vivo stability studies were performed using healthy (non-tumor-bearing) male NRG mice following previously reported procedures. Briefly, [^68Ga]Ga-SB02055 (6.32 ± 0.16 MBq) and [^68Ga]Ga-SB04028 (9.90 ± 0.26 MBq) were injected via the lateral caudal vein into the mice (n = 3). At 15 min pi, the mice were sedated and euthanized, and urine and blood were collected. The blood was processed to obtain plasma by adding 0.5 mL of acetonitrile to 0.5–0.8 mL of whole blood, then vortexing and centrifuging the resulting mixture on a benchtop mini-centrifuge (Fisherbrand™ Mini-Centrifuge 100–240 V, 50/60 Hz Universal Plug) for 20 min. The supernatant was collected and filtered to give the blood plasma. The plasma and urine samples were analyzed via radio-HPLC by using the same conditions as those used for quality control of these ^68Ga-labeled radioligands.

tumor = test system: tumor; set-up: method as in doi:10.1158/1538-7445.AM2022-3303; conditions: up to 168 h pi; cited from earlier work
[9] = HEK293T:hFAP tumor-bearing male NRG mice, unblocked
[10] = HEK293T:hFAP tumor-bearing mice
[11] = HEK293T:hFAP tumor-bearing mice, blocked: co-injected with FAPI-04 (0.5 mg/mouse)

Compound: O=C(NCC(=O)N1CCC[C@H]1B(O)O)c1ccc([125I])cc1 [[^125I]MIP-1232]
accumulation in FAP-positive SK-Mel-187 melanoma xenograft [1]: strongly accumulate

fold higher FAP binding affinity than N-(4-quinolinoyl)-Gly-(2-cyanopyrrolidine) (FAP [3]): 2.8 fold
Compound: O=C(NCC(=O)N1CCC[C@H]1B(O)O)c1ccnc2ccccc12 [N-(4-quinolinoyl)-Gly-boroPro]
selectivity over DPPs (DPPs): > 10^3 | selectivity over PREP (PREP): ~ 3 fold | IC50 (FAP [2]): 3.7 ± 0.2 nM

Compound: N#C[C@@H]1CC(F)(F)CN1C(=O)CNC(=O)c1ccnc2ccc(OCCCN3CCN(C(=O)CN4CCN(CC(=O)[O-])CCN(CC(=O)[O-])CCN(CC(=O)[O-])CC4)CC3)cc12.[68Ga+3] [[^68Ga]Ga-FAPI-04]
uptake in the bone and muscle (bone and muscle): high uptake

Compound: CC(NC(=O)c1ccc(CNC(=O)CN2CCN(CC(=O)[O-])CCN(CC(=O)[O-])CCN(CC(=O)[O-])CC2)cc1)C(=O)N1CCCC1B(O)O.[225Ac+3] (centres unmarked) [[^225Ac]Ac-PNT6555]
anti-tumor efficacy [4]: dose-dependent anti-tumor efficacy

Compound: [^99mTc]Tc-HYNIC-D-Ala-boroPro [[^99mTc]Tc-iFAP]
effective dose [5]: 2.3 ± 0.4 mSv | mean radiation equivalent dose for the kidney [5]: 5.2 ± 0.8 mSv

Adrenal Glands uptake [6, 9]: 0.56 ± 0.89 %ID/g | Blood uptake [6, 9]: 0.60 ± 0.04 %ID/g | Bone uptake [6, 9]: 0.45 ± 0.12 %ID/g | Brain uptake [6, 9]: 0.02 ± 0.00 %ID/g | Fat uptake [6, 9]: 0.06 ± 0.02 %ID/g | Heart uptake [6, 9]: 0.17 ± 0.01 %ID/g | Kidneys uptake [6, 9]: 2.29 ± 0.43 %ID/g | Large Intestines uptake [6, 9]: 0.11 ± 0.03 %ID/g | Liver uptake [6, 9]: 1.49 ± 0.11 %ID/g | Lungs uptake [6, 9]: 0.42 ± 0.04 %ID/g | Muscle uptake [6, 9]: 0.12 ± 0.02 %ID/g | Pancreas uptake [6, 9]: 0.13 ± 0.02 %ID/g | Small Intestine uptake [6, 9]: 0.64 ± 0.10 %ID/g | Spleen uptake [6, 9]: 0.21 ± 0.08 %ID/g | Stomach uptake [6, 9]: 0.11 ± 0.05 %ID/g | Testes uptake [6, 9]: 0.16 ± 0.03 %ID/g | Thyroid uptake [6, 9]: 0.26 ± 0.02 %ID/g | Tumor uptake [6, 9]: 6.38 ± 0.45 %ID/g | Tumor/Blood uptake ratio [6, 9]: 10.7 ± 1.29 | Tumor/Bone uptake ratio [6, 9]: 14.9 ± 3.34 | Tumor/Kidney uptake ratio [6, 9]: 2.87 ± 0.59 | Tumor/Muscle uptake ratio [6, 9]: 52.6 ± 5.86
Compound: CC(NC(=O)c1ccc(CNC(=O)CN2CCN(CC(=O)[O-])CCN(CC(=O)[O-])CCN(CC(=O)[O-])CC2)cc1)C(=O)N1CCCC1B(O)O.[68Ga+3] (centres unmarked) [[^68Ga]Ga-PNT6555, reference compound]

fraction of tracer remaining intact in plasma [8]: 46.6 ± 0.21% | fraction of tracer remaining intact in urine [8]: 53.6 ± 7.11% and > 54% | Adrenal Glands uptake [6, 9]: 0.14 ± 0.10 %ID/g | Blood uptake [6, 9]: 0.97 ± 0.03 %ID/g | Bone uptake [6, 9]: 0.24 ± 0.09 %ID/g | Brain uptake [6, 9]: 0.02 ± 0.00 %ID/g | Fat uptake [6, 9]: 0.07 ± 0.01 %ID/g | Heart uptake [6, 9]: 0.24 ± 0.02 %ID/g | Kidneys uptake [6, 9]: 2.10 ± 0.33 %ID/g | Large Intestines uptake [6, 9]: 0.13 ± 0.03 %ID/g | Liver uptake [6, 9]: 0.32 ± 0.03 %ID/g | Lungs uptake [6, 9]: 0.59 ± 0.04 %ID/g | Muscle uptake [6, 9]: 0.13 ± 0.01 %ID/g | Pancreas uptake [6, 9]: 0.18 ± 0.02 %ID/g | Small Intestine uptake [6, 9]: 0.34 ± 0.02 %ID/g | Spleen uptake [6, 9]: 0.25 ± 0.04 %ID/g | Stomach uptake [6, 9]: 0.06 ± 0.01 %ID/g | Testes uptake [6, 9]: 0.18 ± 0.02 %ID/g | Thyroid uptake [6, 9]: 0.35 ± 0.00 %ID/g | Tumor uptake [6, 9]: 10.1 ± 0.42 %ID/g | Tumor/Blood uptake ratio [6, 9]: 10.4 ± 0.70 | Tumor/Bone uptake ratio [6, 9]: 48.1 ± 20.5 | Tumor/Kidney uptake ratio [6, 9]: 4.89 ± 0.72 | Tumor/Muscle uptake ratio [6, 9]: 79.9 ± 7.50 | fold higher tumor uptake compared to [68Ga]Ga-PNT6555 [6, 10]: ~ 1.5 fold and > 1.5 fold | Adrenal Glands uptake [6, 11]: 0.09 ± 0.06 %ID/g | Blood uptake [6, 11]: 0.49 ± 0.13 %ID/g | Bone uptake [6, 11]: 0.01 ± 0.00 %ID/g | Brain uptake [6, 11]: 0.02 ± 0.00 %ID/g | Fat uptake [6, 11]: 0.14 ± 0.13 %ID/g | Heart uptake [6, 11]: 0.11 ± 0.00 %ID/g | Kidneys uptake [6, 11]: 2.53 ± 0.57 %ID/g | Large Intestines uptake [6, 11]: 0.08 ± 0.03 %ID/g | Liver uptake [6, 11]: 0.30 ± 0.05 %ID/g | Lungs uptake [6, 11]: 0.78 ± 0.37 %ID/g | Muscle uptake [6, 11]: 0.66 ± 0.12 %ID/g | Pancreas uptake [6, 11]: 0.09 ± 0.02 %ID/g | Small Intestine uptake [6, 11]: 0.34 ± 0.04 %ID/g | Spleen uptake [6, 11]: 0.18 ± 0.02 %ID/g | Stomach uptake [6, 11]: 0.03 ± 0.00 %ID/g | Testes uptake [6, 11]: 0.12 ± 0.01 %ID/g | Thyroid uptake [6, 11]: 0.14 ± 0.01 %ID/g | Tumor uptake [6, 11]: 0.30 ± 0.04 %ID/g | Tumor/Blood uptake ratio [6, 11]: 0.63 ± 0.09 | Tumor/Bone uptake ratio [6, 11]: 33.9 ± 13.3 | Tumor/Kidney uptake ratio [6, 11]: 0.12 ± 0.03 | Tumor/Muscle uptake ratio [6, 11]: 0.46 ± 0.06
Compound: CC(NC(=O)c1ccnc2ccc(OCCCN3CCN(C(=O)CN4CCN(CC(=O)[O-])CCN(CC(=O)[O-])CCN(CC(=O)[O-])CC4)CC3)cc12)C(=O)N1CCCC1B(O)O.[68Ga+3] (centres unmarked) [[^68Ga]Ga-SB04028]
tumor uptake on PET/CT image upon co-injection with FAPI-04 ([7]; FAPI-04 0.5 mg/mouse): reduced the tumor uptake to the background level | tumor on PET/CT image [7]: clear visualization | reduction of average tumor uptake upon co-injection with FAPI-04 ([6]; FAPI-04 0.5 mg/mouse, HEK293T:hFAP tumor-bearing mice): ~ 97%

fraction of tracer remaining intact in plasma [8]: no intact | fraction of tracer remaining intact in urine [8]: 93.5 ± 0.91% and > 93% | plasma fraction of unidentified highly hydrophilic 68Ga-labeled species ([8]; mouse plasma): > 99% | Adrenal Glands uptake [6, 9]: 1.17 ± 1.13 %ID/g | Blood uptake [6, 9]: 3.13 ± 1.25 %ID/g | Bone uptake [6, 9]: 1.14 ± 0.37 %ID/g | Brain uptake [6, 9]: 0.05 ± 0.02 %ID/g | Fat uptake [6, 9]: 0.16 ± 0.05 %ID/g | Heart uptake [6, 9]: 1.23 ± 0.48 %ID/g | Kidneys uptake [6, 9]: 1.74 ± 0.95 %ID/g | Large Intestines uptake [6, 9]: 0.56 ± 0.24 %ID/g | Liver uptake [6, 9]: 0.94 ± 0.27 %ID/g | Lungs uptake [6, 9]: 1.20 ± 0.35 %ID/g | Muscle uptake [6, 9]: 0.63 ± 0.20 %ID/g | Pancreas uptake [6, 9]: 2.07 ± 0.83 %ID/g | Small Intestine uptake [6, 9]: 0.80 ± 0.29 %ID/g | Spleen uptake [6, 9]: 0.85 ± 0.27 %ID/g | Stomach uptake [6, 9]: 0.53 ± 0.36 %ID/g | Testes uptake [6, 9]: 0.26 ± 0.10 %ID/g | Thyroid uptake [6, 9]: 1.49 ± 0.47 %ID/g | Tumor uptake [6, 9]: 1.08 ± 0.37 %ID/g | Tumor/Blood uptake ratio [6, 9]: 0.35 ± 0.03 | Tumor/Bone uptake ratio [6, 9]: 0.95 ± 0.06 | Tumor/Kidney uptake ratio [6, 9]: 0.67 ± 0.15 | Tumor/Muscle uptake ratio [6, 9]: 1.72 ± 0.19 | fold lower tumor uptake than [68Ga]Ga-PNT6555 [6, 10]: ~ 6 fold
Compound: O=C([O-])CN1CCN(CC(=O)[O-])CCN(CC(=O)N2CCN(CCCOc3ccc4nccc(C(=O)NCC(=O)N5CCCC5B(O)O)c4c3)CC2)CCN(CC(=O)[O-])CC1.[68Ga+3] (centres unmarked) [[^68Ga]Ga-SB02055]
tumor on PET/CT image [7]: negligible

Compound: CC(NC(=O)c1ccc(CNC(=O)CN2CCN(CC(=O)[O-])CCN(CC(=O)[O-])CCN(CC(=O)[O-])CC2)cc1)C(=O)N1CCCC1B(O)O.[177Lu+3] (centres unmarked) [[^177Lu]Lu-PNT6555]
tumor retention (tumor): > 10 %ID/g | anti-tumor efficacy [4]: dose-dependent anti-tumor efficacy
